Patent US10233195B2, “Anti-fibrotic pyridinones” (InterMune, Inc., priority 2014, dated 2019)

Test system: TGF-b induced Endothelin-1 production
Assay: ET-1 assay: inhibitory effect on TGF-b induced endothelin-1 production
Format: cell-based
Details: Homo sapiens, Fibroblast; fibroblasts, stimulant (TGFb, serum, LPA etc), ET-1 in media by ELISA, 4-parameter fit
Experimental: Assay of Inhibitory Effect on TGF-b Induced Endothelin-1 Production
Fibroblasts (primary human lung and dermal, HFL-1, 3T3 etc) are seeded in 96-well plates at ˜15000 cells/well and serum starved for 0-48 hours. After media exchange, compounds serially diluted in DMSO are added to the cells. After a brief incubation of ˜30 min, stimulants (TGFb, serum, LPA etc) are added followed by further incubation for 16-48 hours. Media is then harvested and stored frozen in plate format for later endothelin-1 (ET-1) determination by ELISA. Toxicity measurements are made using the ATPlite kit (Perkin-Elmer). ET-1 is quantified using an ELISA kit (R&D Systems). The amount of ET-1 produced in the assay wells are back-calculated using the ELISA standard. The ability of a compound to inhibit ET-1 production is typically analyzed by fitting dose-response curves to a 4-parameter logistic function to obtain an EC50 value. A measure of cytotoxicity (CC50) is likewise reported from the same experiment using the ATPlite data.
Compounds of some embodiments were prepared according to synthetic methods described herein and assay data obtained for EC50 against ET-1. The assay data obtained is presented in Table 2, in which A=less than 50 μM, B=greater than or equal to 50 μM and less than or equal to 200 μM; and C=greater than 200 μM.

O=c1ccc(Br)cn1-c1ccc(F)cc1 [Compound 265]
EC50: > 200 µM

COc1cccc(-n2cc(Br)ccc2=O)c1 [Compound 266]
EC50: > 200 µM

CC(C)Oc1ccc(-n2cc(Br)ccc2=O)cc1 [Compound 267]
EC50: > 200 µM

O=c1ccc(Br)cn1-c1cccc(C(F)(F)F)c1 [Compound 268]
EC50: > 200 µM

O=c1ccc(Br)cn1-c1ccc(Cl)cc1 [Compound 269]
EC50: > 200 µM

O=c1ccc(Br)cn1-c1ccc(OC(F)(F)F)cc1 [Compound 270]
EC50: > 200 µM

CC(=O)Nc1cccc(-n2cc(Br)ccc2=O)c1 [Compound 271]
EC50: > 200 µM

O=c1ccc(Br)cn1-c1cccc(F)c1 [Compound 272]
EC50: > 200 µM

CCOc1ccc(-n2cc(Br)ccc2=O)c(C)c1 [Compound 273]
EC50: > 200 µM

O=c1ccc(C(F)(F)F)cn1-c1cccc(F)c1 [Compound 274]
EC50: > 200 µM

O=c1ccc(C(F)(F)F)cn1-c1ccc(OC(F)(F)F)cc1 [Compound 275]
EC50: > 200 µM

CC(=O)Nc1cccc(-n2cc(C(F)(F)F)ccc2=O)c1 [Compound 277]
EC50: > 200 µM

O=c1ccc(C(F)(F)F)cn1-c1cncnc1 [Compound 279]
EC50: > 200 µM

O=c1ccc(C(F)(F)F)cn1-c1ccccc1Cl [Compound 281]
EC50: > 200 µM

Cc1ccc(=O)n(-c2ccccc2F)c1 [Compound 283]
EC50: > 200 µM

C#Cc1ccc(=O)n(-c2ccccc2)c1 [Compound 287]
EC50: > 200 µM

CC(C)Oc1ccc(-n2cc(-c3ccc(F)cc3)ccc2=O)cc1 [Compound 288]
EC50: 50 to 200 µM

O=c1ccc(-c2ccc(F)cc2)cn1-c1cccc(C(F)(F)F)c1 [Compound 289]
EC50: 50 to 200 µM

O=c1ccc(-c2ccc(F)cc2)cn1-c1ccccc1Cl [Compound 291]
EC50: > 200 µM

O=c1ccc(-c2ccccc2)cn1-c1ccc(F)cc1 [Compound 294]
EC50: 50 to 200 µM

O=c1ccc(-c2ccccc2)cn1-c1cccc(F)c1 [Compound 296]
EC50: > 200 µM

CCOc1ccc(-n2cc(-c3ccccc3)ccc2=O)c(C)c1 [Compound 298]
EC50: 50 to 200 µM

O=c1ccc(-c2ccccc2)cn1-c1ccncc1 [Compound 299]
EC50: > 200 µM

O=c1ccc(-c2ccccc2)cn1-c1ccccc1Cl [Compound 302]
EC50: 50 to 200 µM

COc1ccc(-c2ccc(=O)n(-c3ccc(Cl)cc3)c2)cc1 [Compound 303]
EC50: 50 to 200 µM

COc1ccc(-c2ccc(=O)n(-c3cccc(OC)c3)c2)cc1 [Compound 309]
EC50: 50 to 200 µM

COc1ccc(-c2ccc(=O)n(-c3ccccc3Cl)c2)cc1 [Compound 310]
EC50: 50 to 200 µM

COc1ccc(-c2ccc(=O)n(-c3cncnc3)c2)cc1 [Compound 311]
EC50: > 200 µM

COc1ccc(-c2ccc(=O)n(-c3ccccc3F)c2)cc1 [Compound 312]
EC50: > 200 µM

O=c1ccc(-c2cccc(Cl)c2)cn1-c1ccccc1 [Compound 313]
EC50: 50 to 200 µM

O=c1ccc(-c2cccc(Cl)c2)cn1-c1ccc(Cl)cc1 [Compound 314]
EC50: < 50 µM

COc1ccc(-n2cc(-c3cccc(Cl)c3)ccc2=O)cc1 [Compound 315]
EC50: < 50 µM

O=c1ccc(-c2cccc(Cl)c2)cn1-c1cccc(C(F)(F)F)c1 [Compound 318]
EC50: < 50 µM

COc1cccc(-n2cc(-c3cccc(Cl)c3)ccc2=O)c1 [Compound 319]
EC50: < 50 µM

O=c1ccc(-c2cccc(Cl)c2)cn1-c1cccc(F)c1 [Compound 320]
EC50: < 50 µM

CCOc1ccc(-n2cc(-c3cccc(Cl)c3)ccc2=O)c(C)c1 [Compound 321]
EC50: < 50 µM

O=c1ccc(-c2cccc(Cl)c2)cn1-c1ccccc1Cl [Compound 322]
EC50: < 50 µM

O=c1ccc(-c2cccc(Cl)c2)cn1-c1ccncc1 [Compound 323]
EC50: > 200 µM

O=c1ccc(-c2cccc(Cl)c2)cn1-c1ccccc1F [Compound 324]
EC50: 50 to 200 µM

NS(=O)(=O)c1ccc(-c2ccc(=O)n(-c3ccc(Cl)cc3)c2)cc1 [Compound 327]
EC50: > 200 µM

COc1ccc(-n2cc(-c3ccc(S(N)(=O)=O)cc3)ccc2=O)cc1 [Compound 328]
EC50: > 200 µM

NS(=O)(=O)c1ccc(-c2ccc(=O)n(-c3cccc(C(F)(F)F)c3)c2)cc1 [Compound 329]
EC50: > 200 µM

CC(C)Oc1ccc(-n2cc(-c3ccc(S(N)(=O)=O)cc3)ccc2=O)cc1 [Compound 330]
EC50: > 200 µM

COc1cccc(-n2cc(-c3ccc(S(N)(=O)=O)cc3)ccc2=O)c1 [Compound 331]
EC50: > 200 µM

COc1ccc(-n2cc(C)ccc2=S)cc1 [Compound 332]
EC50: > 200 µM

Cc1ccc(=S)n(-c2ccc(OC(C)C)cc2)c1 [Compound 334]
EC50: > 200 µM

Cc1ccc(=S)n(-c2ccc(F)cc2)c1 [Compound 336]
EC50: > 200 µM

Cc1ccc(=S)n(-c2cccc(F)c2)c1 [Compound 338]
EC50: > 200 µM

O=c1ccc(-c2cncnc2)cn1-c1ccc(F)cc1 [Compound 344]
EC50: > 200 µM

O=c1ccc(-c2cncnc2)cn1-c1cccc(F)c1 [Compound 345]
EC50: > 200 µM

O=c1ccc(-c2cncnc2)cn1-c1ccccc1F [Compound 346]
EC50: > 200 µM

O=c1ncc(-c2ccnnc2)cn1-c1ccc(OC(F)(F)F)cc1 [Compound 347]
EC50: 50 to 200 µM

Cc1cc(C)c(=O)n(-c2ccccc2)c1 [Compound 349]
EC50: > 200 µM

Cc1cc(-c2cnn(C)c2)cn(-c2ccc(OC(F)(F)F)cc2)c1=O [Compound 352]
EC50: 50 to 200 µM

O=c1cc2ccccc2cn1-c1ccccc1 [Compound 354]
EC50: 50 to 200 µM

Cn1cc(-c2cnc(=O)n(-c3ccccc3)c2)cn1 [Compound 355]
EC50: > 200 µM

O=c1ncc(-c2ccc(F)cc2)cn1-c1ccccc1 [Compound 356]
EC50: 50 to 200 µM

O=c1ncc(-c2ccc(F)cc2)cn1-c1ccc(OC(F)(F)F)cc1 [Compound 357]
EC50: > 200 µM

Cc1ccc(=O)n(-c2ccccc2)n1 [Compound 359]
EC50: > 200 µM

Cn1cc(-c2ccc(=O)n(-c3ccccc3)n2)cn1 [Compound 361]
EC50: > 200 µM

O=c1ccc(-c2ccc(F)cc2)nn1-c1ccc(OC(F)(F)F)cc1 [Compound 362]
EC50: > 200 µM

Cn1cc(-c2ccc(=O)n(-c3ccc(OC(F)(F)F)cc3)n2)cn1 [Compound 363]
EC50: > 200 µM

Cn1cc(-c2cnc(=O)n(-c3ccc(OC(F)(F)F)cc3)c2)cn1 [Compound 364]
EC50: > 200 µM

O=C1NC=CCN1c1ccccc1 [Compound 365]
EC50: > 200 µM

Cc1cc(=O)n(-c2ccccc2)cc1C [Compound 366]
EC50: > 200 µM

Cc1cc(=O)n(-c2ccc(OC(F)(F)F)cc2)cc1C [Compound 367]
EC50: > 200 µM

Cc1cc(=O)n(-c2ccc(OC(F)(F)F)cc2)cc1C(F)(F)F [Compound 368]
EC50: > 200 µM

CC(C)Oc1ccc(-n2cc(-c3cn[nH]c3)ccc2=O)cc1 [Compound 369]
EC50: 50 to 200 µM

COc1ccc(-n2cc(-c3cn[nH]c3)ccc2=O)cc1 [Compound 370]
EC50: > 200 µM

O=c1ccc(-c2cn[nH]c2)cn1-c1ccc(Cl)cc1 [Compound 371]
EC50: > 200 µM

O=c1ccc(-c2cn[nH]c2)cn1-c1cccc(F)c1 [Compound 372]
EC50: > 200 µM

O=c1ccc(-c2cn[nH]c2)cn1-c1cccc(C(F)(F)F)c1 [Compound 373]
EC50: > 200 µM

COc1cccc(-n2cc(-c3cn[nH]c3)ccc2=O)c1 [Compound 375]
EC50: > 200 µM

O=c1ccc(-c2cn[nH]c2)cn1-c1ccc(F)cc1 [Compound 377]
EC50: 50 to 200 µM

COc1cccc(-n2cc(-c3c(C)n[nH]c3C)ccc2=O)c1 [Compound 378]
EC50: 50 to 200 µM

Cc1n[nH]c(C)c1-c1ccc(=O)n(-c2ccc(F)cc2)c1 [Compound 379]
EC50: > 200 µM

Cc1n[nH]c(C)c1-c1ccc(=O)n(-c2ccc(Cl)cc2)c1 [Compound 380]
EC50: > 200 µM

Cc1n[nH]c(C)c1-c1ccc(=O)n(-c2cccc(F)c2)c1 [Compound 381]
EC50: > 200 µM

Cc1n[nH]c(C)c1-c1ccc(=O)n(-c2ccc(OC(C)C)cc2)c1 [Compound 382]
EC50: 50 to 200 µM

Cc1n[nH]c(C)c1-c1ccc(=O)n(-c2cccc(C(F)(F)F)c2)c1 [Compound 384]
EC50: 50 to 200 µM

CC(C)n1cc(-c2ccc(=O)n(-c3ccccc3)c2)cn1 [Compound 388]
EC50: > 200 µM

Cc1n[nH]c(C)c1-c1ccc(=O)n(-c2ccncc2)c1 [Compound 390]
EC50: > 200 µM

O=c1c2c(ccn2Cc2ccccc2)c(-c2ccc(F)cc2)cn1-c1ccc(OC(F)(F)F)cc1 [Compound 392]
EC50: > 200 µM

Cn1cc(-c2cn(-c3ccc(OC(F)(F)F)cc3)c(=O)c3c2OCC(=O)N3)cn1 [Compound 393]
EC50: > 200 µM

Cn1cc(-c2cn(-c3ccc(Cl)cc3)c(=O)c3nccnc23)cn1 [Compound 397]
EC50: > 200 µM

Cn1cc(-c2cn(-c3ccc(C#N)cc3)c(=O)c3nccnc23)cn1 [Compound 398]
EC50: > 200 µM

N#Cc1cc(=O)n(-c2ccc(OC(F)(F)F)cc2)cc1-c1ccc(F)cc1 [Compound 401]
EC50: > 200 µM

Cn1cc(-c2cn(-c3ccc(OC(F)(F)F)cc3)c(=O)cc2Oc2ccccc2F)cn1 [Compound 408]
EC50: > 200 µM

Cn1cc(-c2cn(-c3ccc(OC(F)(F)F)cc3)c(=O)cc2Oc2cccc(F)c2)cn1 [Compound 409]
EC50: < 50 µM

Cn1cc(-c2cn(-c3ccc(OC(F)(F)F)cc3)c(=O)cc2Oc2ccc(Cl)cc2)cn1 [Compound 412]
EC50: > 200 µM
